Assay results reported in article PMC3083979 (Pharmaceutical research, 2009).
Read-outs that look alike come from different tables or passages of the source.

Tests used:
[1] = tested on: human sandwich-cultured hepatocytes (SCH); conditions: for Accumulation Cells / Accumulation Cells + Bile / BEI: + 2 µM GF120918, 1 µM [3H]digoxin 10 min or 5 µM fexofenadine 30 min
[2] = tested on: perfused livers from Mrp2-deficient TR^− rats; assay: In situ single-pass liver perfusion; format: in vivo, rat; conditions: GF120918 coadministration
[3] = tested on: rat isolated perfused livers; conditions: P-gp inhibitor erythromycin, ref [43]; cited from earlier work
[4] = tested on: human OATP1B1; conditions: bosentan 100 µM, competitive, transfected CHO cells; ref [45]; cited from earlier work
[5] = tested on: human OATP1B3; conditions: bosentan 100 µM, competitive, transfected CHO cells; ref [45]; cited from earlier work
[6] = tested on: human OATP2B1; conditions: bosentan 100 µM, competitive, transfected CHO cells; ref [45]; cited from earlier work

COc1cc2c(cc1OC)CN(CCc1ccc(NC(=O)c3cccc4c(=O)c5cccc(OC)c5[nH]c34)cc1)CC2 [GF120918, N-(4-[2-(1,2,3,4-tetrahydro-6,7-dimethoxy-2-isoquinolinyl)ethyl]-phenyl)-9,10-dihydro-5-methoxy-9-oxo-4-acridine carboxamide]
Effect on fexofenadine BEI and in vitro biliary clearance ([1]; 2 µM GF120918, human SCH): not affected | Effect on BEI and in vitro biliary clearance of [3H]digoxin ([1]; 2 µM GF120918, human SCH, both livers): abolished completely | Fexofenadine Cl’biliary as % of control [2]: 27.5 % of control

C[C@H]1O[C@@H](O[C@H]2[C@@H](O)C[C@H](O[C@H]3[C@@H](O)C[C@H](O[C@H]4CC[C@@]5(C)[C@H](CC[C@@H]6[C@@H]5C[C@@H](O)[C@]5(C)[C@@H](C7=CC(=O)OC7)CC[C@]65O)C4)O[C@@H]3C)O[C@@H]2C)C[C@H](O)[C@@H]1O [[^3H]Digoxin, digoxin]
Accumulation Cells ([1]; Liver 1): 29.9 ± 1.6 pmol/mg | Accumulation Cells + Bile ([1]; Liver 1): 26.2 ± 0.9 pmol/mg | BEI ([1]; Liver 1): 0% | Accumulation Cells ([1]; Liver 1, listed as [^3H]digoxin): 29.9 pmol/mg | Accumulation Cells ([1]; Liver 2): 25.2 ± 1.6 pmol/mg | Accumulation Cells + Bile ([1]; Liver 2): 23.4 ± 2.3 pmol/mg | BEI ([1]; Liver 2): 0%

CC[C@H]1OC(=O)[C@H](C)[C@@H](O[C@H]2C[C@@](C)(OC)[C@@H](O)[C@H](C)O2)[C@H](C)[C@@H](O[C@@H]2O[C@H](C)C[C@H](N(C)C)[C@H]2O)[C@](C)(O)C[C@@H](C)C(=O)[C@H](C)[C@@H](O)[C@]1(C)O [erythromycin]
Effect on cumulative recovery of fexofenadine in bile [3]: decreased

COc1ccccc1Oc1c(NS(=O)(=O)c2ccc(C(C)(C)C)cc2)nc(-c2ncccn2)nc1OCCO [bosentan]
Inhibition of transport of model probes [4]: ~ 40% | Inhibition of transport of model probes [5]: ~ 40% | Inhibition of transport of model probes [6]: ~ 40%
